Results on one substance are retold here after patent publication US20070042947A1, “Agents for preventing and/or treating uppper digestive tract disorders” (Takeda Pharmaceutical Company Limited, priority 2003, published 2007).

In one experiment the test system is Wistar male rats. The experiment can be described thus: Gastric acid secretion in anesthetized rat by intravenous injection of hNPW23 (stomach perfusion, NaOH titration). In kind it is in vivo. As to conditions: 80 μM in saline, 1 ml/h for 30 minutes through the femoral vein; mean±SE, 8 rats; P 0.01 or less vs control. How it is done: After Wistar male rats (Nippon Charles River, weighing 320-360 g) were fasted for 16 hours with water given ad libitum, the animal was injected intraperitoneally with ethyl carbamate (Wako Pure Chemical) (1.0 g/ml/kg) and firmly secured to the operating table under anesthesia to perform laparotomy. Stomach catheter (Medtop X2-50, 3.5 mm in outer diameter and […] in inner diameter) was inserted into the stomach (2 cm) through an incision in the duodenum. After ligature at the pyloric canal, the right femoral vein was isolated to perform venous cannulation. The stomach was irrigated with distilled water (Otsuka Pharmaceutical Co., Ltd.) warmed at 37° C. and allowed to stand for about an hour. hNPW23 was dissolved in saline (Otsuka Pharmaceutical Co., Ltd.) to become 80 μM. The control group was given saline. […] Gastric acid output was determined as follows. […] After 30 μl of Bromthymol Blue indicator solution (BTB, Wako Pure Chemical) was added to each gastric juice collected, the mixture was titrated with 0.1N NaOH solution and the consumed amount of NaOH required to reach the equivalent point (the amount consumed) was determined to calculate the gastric acid output. The gastric acid output before administration of hNPW23 was measured and T-assay was conducted on a percentage (%) of changes in gastric acid outputs before and after administration. […]

The test system of experiment [1] is pylorus ligated rats. The experiment can be described thus: Gastric fluid volume, pH, gastric acidity and acid output in pylorus ligated rats. In kind it is in vivo, rat. As to conditions: 2 mg/kg intraperitoneally; 3 hours after pylorus ligature; mean ± SE, 8 rats. How it is done: After Wistar male rats (340-360 g) were fasted for 16 hours with water given ad libitum, the animal was exposed at laparotomy under ether anesthesia and submitted to the pylorus ligature assay to close the abdomen. After hNPW23 was dissolved in saline (2 mg/ml), the solution was intraperitoneally injected (2 mg/kg). The control group was given saline. Test was performed with 8 rats in each group. Three hours after the pylorus ligature, the rat's abdomen was opened under anesthesia with Nembutal (40 mg/kg, Dainippon Pharmaceutical). After ligation of the cardia, the stomach was removed. Gastric contents were collected and centrifuged (2500 rpm×10 min.). Using the supernatant, gastric fluid volume (ml), pH intragastric pH, gastric acidity (mEq/l) and total acid output (μEq/kg/h) were measured.
To 1 ml of gastric juice, 30 μl of BTB (Wako Pure Chemical) solution was added and […] NaOH solution was dropwise added to the mixture. The consumed amount of NaOH required to reach the equivalent point (pH 7.0) was measured to calculate the gastric acidity and total acid output.
The pH of gastric juice was measured using Twin pH meter B-212 (Horiba, Ltd.).
The respective measurements values were calculated according to the equation below and T-assay was conducted.
Gastric acidity (mEq/l)=0.2N NaOH×consumed amount (μl)/gastric juice (1000 μl)
Total acid output (μEq/kg/h)=gastric acidity x gastric fluid volume/weight/time

Experiment [2] concerns pylorus ligated rats. Nature of the experiment: Amount of gastrin secretion (blood gastrin level, RIA) in pylorus ligated rats. In kind it is in vivo, rat. As to conditions: 2 mg/kg (2000 μg/kg group) intraperitoneally; blood 3 hours after pylorus ligature; vs saline group, 8 rats. The protocol:
After Wistar male rats (340-360 g) were fasted for 16 hours with water given ad libitum as in EXAMPLE 2 above, the animal was exposed at laparotomy under ether anesthesia and submitted to the pylorus ligature assay to close the abdomen. After hNPW23 was dissolved in saline (2 mg/ml), the solution was intraperitoneally injected (2 mg/kg). The control group was given saline. Test was performed with 8 rats in each group. Three hours after the pylorus ligature, the rat's abdomen was opened under anesthesia with Nembutal (40 mg/kg) and blood was collected through the abdominal aorta. The blood was placed in a blood tube of 7 ml (Terumo, containing EDTA), centrifuged (3000 rpm×10 min.) and stored at −40° C in lyophilized state until assay. Gastrin level in blood was assayed with Gastrin RIA KIT II (ABBOTT JAPAN). The F-assay was conducted on mean measurement values.

For the substance “hNPW23: human GPR8 ligand peptide (hNPW23), amino acid sequence SEQ ID NO: 1; Neuropeptide W (WYKHVASPRYHTVGRAAGLLMGL; listed as Homo sapiens)”, the “changes in gastric acid outputs (gastric acid output after administration / before administration x 100)” value in the experiment on Wistar male rats is recorded as 145.6±8.5%. Further, in the experiment on pylorus ligated rats [1], the Gastric acidity came out at 96.0 ± 4.2 mEq/l, the Gastric fluid volume worked out at 7.9 ± 1.2 mL, the “Intragastric pH” value is 0.83 ± 0.03 and the Total acid output came to 747.4 ± 121.5 μEq/kg/h. Further, the “gastrin level in blood” value with pylorus ligated rats [2] was “increased significantly”.
